Assay [1] relates to CCRF-CEM. Briefly: Compound was evaluated for cytotoxic activity against CEM cells. The format is functional. Particulars: Homo sapiens.
A short description of assay [2]: Compound was evaluated minimum inhibitory concentration against moloney sarcoma virus (MSV) infected C3H cell cultures. The format is functional. Conditions: Mus musculus.
Assay [3] can be described thus: Compound was evaluated cytotoxicity against moloney sarcoma virus (MSV) infected C3H cell cultures. The format is functional. Conditions: Mus musculus.
Assay [4] in a line: Ratio of CC50/EC50 was calculated. The format is functional.
The test system of assay [5] is CCRF-CEM. Briefly: Compound was evaluated for antiviral activity against HIV-2 (ROD) infected CEM cells. The format is functional, cell-based. Conditions: Homo sapiens.
Assay [6] concerns CCRF-CEM. Briefly: Compound was evaluated for antiviral activity against HIV-1 (IIIB) infected CEM cells. The format is functional, cell-based. Particulars: Homo sapiens.

Converted amounts (≈) assume the structure as drawn.

As a reminder, the CC50 is the concentration giving 50% cytotoxicity. The EC50 is the concentration needed to bring the measured effect to its halfway point. The low end stands for a more potent agent, the high end for a less potent agent.

With `Cc1cn([C@H]2C[C@H](N=[N+]=[N-])[C@@H](CO)O2)c(=O)[nH]c1=O` [ZIDOVUDINE], the figures for the CC50 (with CCRF-CEM [1]; in assay [3]) were over 100 µM and over 20 µM, respectively. This molecule also had an MIC in assay [2] of 0.02 µM (≈ 0.00534 µg/mL). Further, the Selectivity index in assay [4] was over 20000.
Turning to `CC(NP(=O)(OCC1C=CC(n2cnc3c(N)ncnc32)O1)Oc1ccccc1)C(=O)OCc1ccccc1` (configuration not stated), the EC50 in the assay with CCRF-CEM [5] and in the assay with CCRF-CEM [6] was 0.008 µM in each case. In addition, the CC50 is 1.9 µM in the assay with CCRF-CEM [1] and over 4 µM in assay [3]. In assay [2], this molecule returned an MIC of 0.2 µM (≈ 0.11 µg/mL). Also, the Selectivity index in assay [4] was 237.
As for `Nc1ncnc2c1ncn2[C@H]1C=C[C@@H](CO)O1`, the EC50 with CCRF-CEM [5] and with CCRF-CEM [6] was 20 µM each time. Moreover, the figures for the CC50 (in the assay with CCRF-CEM [1]; in assay [3]) were 91 µM and over 100 µM, respectively. Moreover, in assay [2], the MIC amounted to 31 µM (≈ 7.23 µg/mL). In addition, in assay [4], the Selectivity index was 4.5.
For `COC(=O)C(C)NP(=O)(OCC1C=CC(n2cnc3c(N)ncnc32)O1)Oc1ccccc1` (configuration not stated), the EC50 in the assay on CCRF-CEM [5] was determined as 0.018 µM; in the assay with CCRF-CEM [6] it was 0.006 µM. In addition, the values for the CC50 (with CCRF-CEM [1]; in assay [3]) were 3.8 µM and over 100 µM, respectively. Moreover, in assay [2], the MIC was found to be 9.4 µM (≈ 4.46 µg/mL). The Selectivity index in assay [4] was 633.

The values above are taken from ChEMBL document CHEMBL1129180, “Phosphoramidate derivatives of 2,3-didehydro-2,3-dideoxyadenosine [d4A] have markedly improved anti-HIV potency and selectivity” (Bioorg Med Chem Lett, 1996).
